Assay results from US20020035131A1, “Regimen and kit for amelioration of premature ejaculation” (Pentech Pharmaceuticals, Inc., priority 1999, published 2002).
Several values for one entry are separate records, joined by “and”; a condition that tells them apart may be missing. Identical values can stand only once.

Legend:
[1] = test system: healthy men with a diagnosis of premature ejaculation (PE); assay: Example 4: double-blind, randomized, parallel safety and efficacy study, 6, 9 and 12 mg capsules; format: in vivo, human; details: for Time to Ejaculate, Mean Time (minutes), Reported By Partner / Time to Ejaculate, Range (minutes), Reported By Partner / Time to Ejaculate, Mean Time (minutes), Reported By Patient / Time to Ejaculate, Range (minutes), Reported By Patient: after 6 weeks treatment, baseline latency ≦ 2 minutes, preliminary data; for Time to Ejaculate, Mean Time (minutes), Reported By Partner / Time to Ejaculate, Range (minutes), Reported By Partner: n 23; for Reason for Early Termination: AE (Adverse Experience), patients: 6, 9 and 12 mg capsules combined
Experimental: A double-blind, randomized, parallel safety and efficacy study was conducted at six clinical sites, A-F. […] The study consisted of a screening period, baseline period, and two treatment periods. The patients who completed the study participated for about nine weeks. The patients selected were healthy men between the ages of 21 and 65 years with a diagnosis of premature ejaculation (PE). Patients who met the selection criteria provided a medical history and submitted to psychosexual and physical examinations at screening. The efficacy of the paroxetine capsules was assessed at each visit. Safety was assessed by physical examinations and adverse experience (AE) reports, if any, were collected throughout the study. A post-treatment physical assessment was performed at the final visit. Qualified patients who were admitted to this study were assigned an identification number in sequential order by enrollment. […] There were a total of about eighteen patients per dose/per site. […] The capsule was to be taken one hour after breakfast or within two hours of awakening.

[2] = test system: normally potent male patients suffering from premature ejaculation; assay: Example 2 Study Group 2: single blind cross-over, daily paroxetine then continual maintenance vs placebo (ELT, coitus frequency); format: in vivo, human
[3] = test system: normally potent male patients suffering from premature ejaculation; assay: Example 1 prospective study: ejaculatory latency time (ELT) and frequency of intercourse, dose conversion and continual maintenance regimens; format: in vivo, human; details: for mean ELT after treatment: from a mean ELT of less than one minute
Experimental: The term “premature ejaculation” as used herein refers to ejaculation that occurs within 60 seconds of vaginal intromission. […] The patients were selected on the basis of a having baseline pretreatment ejaculation latency time (“ELT”) of less than about two minutes. An ELT of less than one minute was regarded as severe premature ejaculation dysfunction. In contrast, the average ELT of a normally potent person is about three to about four minutes. The baseline ELT of the patient was determined as the mean of measurements at a minimum of two acts of sexual intercourse prior to commencing treatment using a stopwatch operated by the patient. […] The term “acute” with respect to the dosing means that the patient ingested an oral dose of paroxetine daily after breakfast or lunch for a period of at least one week. The patients were supplied with an ejaculation diary and were asked to record their frequency of coitus, quality of erection and orgasm, and to record their ELT using a stopwatch. The patients were required to attempt coitus on at least two occasions each week at home. In some trials, the patient's partner was also instructed on the use of the stopwatch and asked to record their recollection of the timing of the patient's ejaculation. […] All patients in the study group were heterosexual, had no other sexual disorders and were either married or in a stable relationship. […] The mean age of the 94 patients was 39 years (range 18-61 years). […] Vital signs, such as heart rate, blood pressure and the like were also monitored by the Registered Nurse. […] Of the group, 55 men (59%) had lifelong premature ejaculation, with the remaining 39 men (41%) describing acquired premature ejaculation with previous acceptable ejaculatory control. Of the 55 men with lifelong premature ejaculation, 10 men (18%) had severe lifelong premature ejaculation and had never achieved intravaginal ejaculation. The patients in the study were enrolled into two groups, Group A and Group B. […] Each patient was supplied with an ejaculation diary and instructed to record their frequency of coitus, quality of erection and orgasm, and to measure and record their ejaculatory latency time using a stop-watch. The patients were required to attempt coitus on at least two occasions each week. Statistical analysis: A Student's t-test was used to compare the mean ELT values before and after treatment with paroxetine for each of Groups A and B.

[4] = target: P450 2D6 enzyme (Homo sapiens, UniProt P10635); details: cited from earlier work
Sequence of P450 2D6 enzyme (P10635 whole entry): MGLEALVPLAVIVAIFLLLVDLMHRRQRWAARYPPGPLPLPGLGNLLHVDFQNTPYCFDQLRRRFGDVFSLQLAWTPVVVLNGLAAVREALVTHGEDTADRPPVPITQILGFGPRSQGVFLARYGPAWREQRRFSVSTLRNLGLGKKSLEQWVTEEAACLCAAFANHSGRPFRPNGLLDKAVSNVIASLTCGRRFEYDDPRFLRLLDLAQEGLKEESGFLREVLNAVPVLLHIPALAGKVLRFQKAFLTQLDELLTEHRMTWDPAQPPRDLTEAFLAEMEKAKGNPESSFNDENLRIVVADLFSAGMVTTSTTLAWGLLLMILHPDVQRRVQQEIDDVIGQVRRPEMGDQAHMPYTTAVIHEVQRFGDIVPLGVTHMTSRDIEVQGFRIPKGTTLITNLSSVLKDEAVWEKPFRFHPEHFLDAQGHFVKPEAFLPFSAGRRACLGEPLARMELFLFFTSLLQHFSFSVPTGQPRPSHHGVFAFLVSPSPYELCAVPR

[5] = Study Group 2-C, week 1: paroxetine 10 mg daily
[6] = Study Group 2-C, week 2: paroxetine 10 mg daily
[7] = Study Group 2-C, week 3: paroxetine 10 mg daily
[8] = Study Group 2-C, week 4: paroxetine 20 mg continual maintenance after three weeks 10 mg daily
[9] = Study Group 2-C, week 5: paroxetine 20 mg continual maintenance after three weeks 10 mg daily
[10] = Study Group 2-C, week 6: paroxetine 20 mg continual maintenance after three weeks 10 mg daily
[11] = Study Group 2-C, week 7: paroxetine 20 mg continual maintenance after three weeks 10 mg daily
[12] = Study Group 2-D, week 11: paroxetine 10 mg daily, first week after placebo phases and washout
[13] = Study Group 2-D, week 12: paroxetine 10 mg daily, second week after placebo phases and washout
[14] = Study Group 2-D, week 13: paroxetine 10 mg daily, third week after placebo phases and washout
[15] = Study Group 2-D, week 14: paroxetine 20 mg continual maintenance after three weeks 10 mg daily
[16] = Study Group 2-D, week 15: paroxetine 20 mg continual maintenance after three weeks 10 mg daily
[17] = Study Group 2-D, week 16: paroxetine 20 mg continual maintenance after three weeks 10 mg daily
[18] = Study Group 2-D, week 17: paroxetine 20 mg continual maintenance after three weeks 10 mg daily
[19] = Group A-Phase 2: 20 mg continual maintenance dose 3-4 hours prior to intercourse, further four weeks after Phase 1, 53 men
[20] = Group A-Phase 2: 20 mg continual maintenance, the 36/53 patients
[21] = Group B: 20 mg continual maintenance dose only, 3-4 hours prior to intercourse, four weeks, 33 men
[22] = Group B: solely 20 mg continual maintenance, the 14/33 responders
[23] = Group B: solely 20 mg continual maintenance, the 19/33 non-responders

## Fc1ccc([C@@H]2CCNC[C@H]2COc2ccc3c(c2)OCO3)cc1 (relative stereo) [paroxetine, trans-(−)-3-(1,3-benzodioxol-5-yloxy)methyl-4-(4-fluorophenyl) piperidine]
[1]; 6 mg capsule daily
  Time to Ejaculate, Mean Time (minutes), Reported By Partner: 2.6 min
  Time to Ejaculate, Range (minutes), Reported By Partner: 0.4 to 15 min
[1]; 6 mg capsule daily, n 25
  Time to Ejaculate, Mean Time (minutes), Reported By Patient: 2.4 min
  Time to Ejaculate, Range (minutes), Reported By Patient: 0.03 to 16 min
[1]; 9 mg capsule daily
  Time to Ejaculate, Mean Time (minutes), Reported By Partner: 2.3 min
  Time to Ejaculate, Range (minutes), Reported By Partner: 0.03 to 10 min
[1]; 9 mg capsule daily, n 25
  Time to Ejaculate, Mean Time (minutes), Reported By Patient: 2.4 min
  Time to Ejaculate, Range (minutes), Reported By Patient: 0.03 to 12.5 min
[1]; 12 mg capsule daily
  Time to Ejaculate, Mean Time (minutes), Reported By Partner: 3.5 min
  Time to Ejaculate, Range (minutes), Reported By Partner: 0.12 to 30 min
[1]; 12 mg capsule daily, n 24
  Time to Ejaculate, Mean Time (minutes), Reported By Patient: 2.4 min
  Time to Ejaculate, Range (minutes), Reported By Patient: 0.25 to 10 min
[1]; Clinical Site A, 10 enrolled
  Reason for Early Termination: AE (Adverse Experience), patients: 0
[1]; Clinical Site B, 16 enrolled
  Reason for Early Termination: AE (Adverse Experience), patients: 3
[1]; Clinical Site C, 34 enrolled
  Reason for Early Termination: AE (Adverse Experience), patients: 1
[1]; Clinical Site D, 6 enrolled
  Reason for Early Termination: AE (Adverse Experience), patients: 1
[1]; Clinical Site E, 22 enrolled
  Reason for Early Termination: AE (Adverse Experience), patients: 1
[1]; Clinical Site F, 19 enrolled
  Reason for Early Termination: AE (Adverse Experience), patients: 2
[1]; TOTALS of sites A-F, 107 enrolled
  Reason for Early Termination: AE (Adverse Experience), patients: 8
[2]; [5]
  Coitus Frequency/wk: 1.7 /wk
  Ejaculatory Latency Time: 1.2 min
[2]; [6]
  Coitus Frequency/wk: 1.9 /wk
  Ejaculatory Latency Time: 1.8 min
[2]; [7]
  Coitus Frequency/wk: 2.7 /wk
  Ejaculatory Latency Time: 4.3 min
[2]; [8]
  Coitus Frequency/wk: 2.3 /wk
  Ejaculatory Latency Time: 4.5 min
[2]; [9]
  Coitus Frequency/wk: 2.0 /wk
  Ejaculatory Latency Time: 5.2 min
[2]; [10]
  Coitus Frequency/wk: 2.9 /wk
  Ejaculatory Latency Time: 4.7 min
[2]; [11]
  Coitus Frequency/wk: 2.4 /wk
  Ejaculatory Latency Time: 5.8 min
[2]; [12]
  Coitus Frequency/wk: 2.0 /wk
  Ejaculatory Latency Time: 2.2 min
[2]; [13]
  Coitus Frequency/wk: 2.2 /wk
  Ejaculatory Latency Time: 3.5 min
[2]; [14]
  Coitus Frequency/wk: 3.1 /wk
  Ejaculatory Latency Time: 3.3 min
[2]; [15]
  Coitus Frequency/wk: 3.0 /wk
  Ejaculatory Latency Time: 4.2 min
[2]; [16]
  Coitus Frequency/wk: 2.6 /wk
  Ejaculatory Latency Time: 3.9 min
[2]; [17]
  Coitus Frequency/wk: 2.5 /wk
  Ejaculatory Latency Time: 4.6 min
[2]; [18]
  Coitus Frequency/wk: 2.7 /wk
  Ejaculatory Latency Time: 6.1 min
[2]; Study Group 2, patients who had never previously achieved it, after two weeks of treatment
  patients achieving intra-vaginal ejaculation for the first time: all of the five
[3]; Group A overall (36/61): four weeks daily 20 mg followed by conversion to continual maintenance
  patients who achieved and maintained improved ejaculatory control: 59%
[3]; Group A-Phase 1: 20 mg acute dose daily for four weeks, 61 men
  mean Frequency Intercourse Times/Week: 2.4 Times/Week
[3]; Group A-Phase 1: 20 mg acute dose daily, at four weeks, 61 men
  mean ELT: 4.5 min
[3]; Group A-Phase 1: 20 mg daily for four weeks, 53 of 61 patients
  patients who regarded their ejaculatory control as significantly improved: 87%
[3]; Group A-Phase 1: 20 mg daily, after four weeks, the 53/61 responders
  ELT of patients with improved ejaculatory control: 5.1 min
[3]; Group A-Phase 1: 20 mg daily, after one week of treatment
  mean ELT: 1.1 min
[3]; Group A-Phase 1: 20 mg daily, after two weeks
  mean ELT: 1.6 min
[3]; Group A-Phase 1: 20 mg daily, at four weeks, the 8/61 non-responders
  mean ELT of patients without improved control: 0.6 min
[3]; Group A-Phase 1: 20 mg daily, at three weeks
  mean ELT: 3.5 min
[3]; Group A-Phase 1: 20 mg daily, the 8/61 non-responders
  frequency of sexual intercourse acts of patients without improved control: 1.7 times/week
[3]; Group A-Phase 1: 20 mg daily, the 53/61 responders
  frequency of sexual intercourse acts of patients with improved ejaculatory control: 2.5 times/week
[3]; [19]
  mean ELT: 3.9 min
  mean Frequency Intercourse Times/Week: 2.6 Times/Week
[3]; Group A-Phase 2: 20 mg continual maintenance, at four weeks, the 16/53 men
  mean ELT of patients who failed to maintain improved control: 0.6 min
[3]; Group A-Phase 2: 20 mg continual maintenance, the 16/53 men
  frequency of acts of sexual intercourse/week of patients who failed to maintain improved control: 2.8 acts of sexual intercourse/week
[3]; [20]
  frequency of acts of sexual intercourse/week of patients who maintained improved control: 2.4 acts of sexual intercourse/week
  mean ELT of patients who maintained improved ejaculatory control: 5.5 min
[3]; Group A-Phase 2: after conversion from daily to 20 mg continual maintenance, 16/53
  patients who failed to maintain improved ejaculatory control (recurrence of premature ejaculation): 31% and 32%
[3]; Group A-Phase 2: four weeks 20 mg continual maintenance after four weeks daily, 36/53
  patients who maintained improved ejaculatory control: 69% and 68%
[3]; [21]
  mean ELT: 1.5 min
  mean Frequency Intercourse Times/Week: 2.2 Times/Week
[3]; Group B: solely 20 mg continual maintenance
  patients who regarded their ejaculatory control as significantly improved (fraction of patients): 14/33
[3]; Group B: solely 20 mg continual maintenance, 14 of 33
  patients who achieved ejaculatory control: 42%
[3]; [22]
  frequency of acts of sexual intercourse/week of patients with improved control: 2.4 acts of sexual intercourse/week
  mean ELT of patients with improved ejaculatory control: 2.7 min
[3]; [23]
  frequency of acts of intercourse/week of patients with no change in ejaculatory control: two
  mean ELT of patients with no change in ejaculatory control: 0.4 min
[3]; four weeks initial loading and four weeks continual maintenance
  mean ELT after treatment: greater than 2.5 minutes
[3]; men with severe lifelong premature ejaculation who had never achieved intra-vaginal ejaculation (including four in Group B)
  men achieving intra-vaginal ejaculation for the first time: 10/10
[3]; paroxetine oral therapy regimen
  time to improved ejaculatory control after initiating treatment: 1-2 weeks
[3]; solely continual maintenance dosage over about four weeks
  mean ELT after treatment: at least 1.5 minutes
[4]
  inhibition of the P450 2D6 enzyme: potent inhibitor
